Here are results for 2 compounds from patent publication US10463669B2, “Composition for treating or preventing liver cancer” (Seoul National University R&DB Foundation, priority 2016, dated 2019).

Assay [1] has as its system PI3K isotype p110δ expression in HCC cells. To be noted: HCC cells after treatment with H2O2. The protocol: Medium was exchanged every day, and the aforementioned cells were cultured for 4 days in 300 μmol/L hydrogen peroxide (H2O2) (Sigma Aldrich; H1009). In several experiments, the cells were treated for 1 hour with 5 mmol/L N-acetylcysteine (NAC) (Sigma Aldrich; A7250), 25 μmol/L idelalisib (LC Laboratoties, Woburn, Mass., USA; I-7447), 25 μmol/L perifosine (LC Laboratoties, Woburn, Mass., USA; P-6522), or 30 μmol/L GSK3β inhibitor (GSK3β inhibitor XI) (Santa Cruz; sc-204770) (31) before adding H2O2. Furthermore, sterilized distilled water (pH 7.0) was used as a negative control (i.e., mock treatment).
PCR was carried out by using TOPrealm qPCR 2×PreMIX (SYBR Green with high ROX) (Enzynomics, Daejeon, Korea; RT501M) and ABI Prism 7300 thermal cycler (Applied Biosystems, Foster City, Calif., USA). […] To examine the primer specificity, a dissociation step was additionally included.

The subject of assay [2] is β-catenin and SetD1A binding to the TERT promoter in Huh7 cells. In words: Chromatin immunoprecipitation (ChIP) at the TERT promoter. To be noted: HCC (Huh7) cells, with or without 300 μmol/L H2O2. It counts as cell-based, human. The protocol:
As it has been described before (Lim S O, et al. Gastroenterology. 2008; 135: 2128-40, 40 el-8.; Hoffmeyer K, et al. Science. 2012; 336: 1549-54.), several modified ChIP (chromatin immunoprecipitation) tests were carried out. In the presence or absence of a PI3K inhibitor, an AKT inhibitor, or a GSK3β inhibitor, Huh7 cells were cultured for 4 days with or without a treatment of 300 μmol/L H2O2. Under mild shaking for 20 minutes at room temperature, the cells were fixed by using 1% paraformaldehyde. After that, the cells were rinsed twice with ice-cold PBS; resuspended with 400 μL of micrococcal nuclease buffer (50 mmol/L TrisHCl [pH 8.0], 5 mmol/L CaC12, 100 μg/mL BSA, 10 mmol/L KCl, and protease inhibitor cocktail [Roche, Basel, Switzerland; 4693159001]); and disrupted with 2 mm-diameter zirconium beads (Watson); to have micrococcal nuclease digestion (New England Biolabs, Beverly, Mass., USA; M0247S). Chromatin (150 μg) was collected and diluted in a dilution buffer (0.1% NP-40, 2 mmol/L EDTA, 150 mmol/L NaCl, 20 mmol/L TrisHCl [pH 8.0], protease inhibitor cocktail [Roche]), and a phosphatase inhibitor cocktail [Calbiochem]), and then subjected to pre-clearing with 2 μg digested salmon sperm DNA, 10 μL preimmune serum (Santa Cruz Biotechnology; sc-2027), and Dynabeads Protein G (Life Technologies; 1004D) for 2 hours at 4° C. After the immunoprecipitation, 20 μL of Dynabeads Protein G were added thereto and the culture was continued for 2 hours. The Dynabeads were washed continuously for 10 minutes with TSE 1 (0.1% SDS, 1% Triton X-100, 2 mmol/L EDTA, 20 mmol/L TrisHCl, and 150 mmol/L NaCl), TSE II (0.1% SDS, 1% Triton X-100, 2 mmol/L EDTA, 20 mmol/L TrisHCl, and 500 mmol/L NaCl), and buffer III (0.25 mol/L LiCl, 1% NP-40, 1% deoxycholate, 1 mmol/L EDTA, and 10 mmol/L TrisHCl). After that, the beads were washed 3 times with TE buffer, and extraction was made by using 1% SDS and 0.1 mol/L NaHCO3. To have reverse formaldehyde cross-linking, the elution solution was heated overnight at 65° C. By using NucleoSpin DNA clean-up kit, DNA debris were purified. By using primers specific to the TERT promoter region, the PCR amplified product was quantified by qPCR (ABI 7300; Applied Biosystems, Foster City, Calif., USA). The PCR amplification was normalized against the TERT intron. The primer sequences are as follows: β-catenin interaction site for ChIP (forward primer: TCCCGGGTCCCCGGCCCA (SEQ ID NO:8); reverse primer: […] (SEQ ID NO:9)) and TERT intron for ChIP (forward primer: […] (SEQ ID NO:10); reverse primer: […] (SEQ ID NO:11)). For each of the β-catenin interaction site which has been recorded before, 20-22 bp were added. The antibodies that are used are as follows: rabbit polyclonal anti-β-catenin (1:200, Abcam, Cambridge, Mass., USA; ab6302), mouse monoclonal anti-RNA polymerase II (1:50, Covance, Princeton, N.J., USA; MMS-126R), and rabbit polyclonal anti-SETD1A (1:100, Novus Biologicals, Littleton, Colo., USA; NBP1-81513).
Inventors of the present invention made an investigation to see whether or not the increased chromatin accessibility in TERT promoter during TERT transcription is related with β-catenin. To do so, by using intrinsic β-catenin and an antibody against histone methyl transferase SetD1A which has been reported to promote the TERT transcription based on chromatin remodeling, chromatin immunoprecipitation was carried out. When a PI3K or AKT inhibitor is treated together for chromatin immunoprecipitation, β-catenin and SetD1A, which bind to the TERT promoter in HCC cells, were reduced even in the presence of H2O2 (FIGS. 3A and 3B). However, when the treatment is carried out also with a GSK3p inhibitor, increased binding of β-catenin and SetD1A was shown regardless of a treatment with H2O2 (FIG. 3C).

Take `OO` [H2O2, hydrogen peroxide]: the “p110δ expression (only isotype among p110α, p110β, p110δ, p110γ)” value in assay [1] was “increased”.

For `CC[C@H](Nc1ncnc2nc[nH]c12)c1nc2cccc(F)c2c(=O)n1-c1ccccc1` [idelalisib, 5-fluoro-3-phenyl-2-[(1S)-1-(7H-purin-6-ylamino)propyl]-4(3H)-quinazolinone], in assay [2], the “SetD1A binding to the TERT promoter” value is recorded as “reduced” and the “β-catenin binding to the TERT promoter” value is on record as “reduced”.
